# Source: patent US20250351832A1, “PHYTOCHEMICALS AS BIOPESTICIDES AND BIOSTIMULANTS” (KAY BEE BIO ORGANICS PVT. LTD., priority 2024, published 2025)
# Where two headings read alike, the source gives them in different places.
# Legend:
# [1] = system: Alternaria alternata; assay: In vitro poisoned food technique against fungus (Ex. 20); type: cell-based; conditions: poisoned food technique, PDA medium, dose 1 ml/gm/lit., after seven days
# [2] = system: Alternaria alternata; assay: Alternaria leaf spot/blight on inoculated tomato plants (Ex. 28); type: in vivo; conditions: tomato plants, Alternaria alternata; after 7 days; dose 1 ml/gm/lit
# [3] = system: tomato seedlings; assay: Response of tomato plants, greenhouse growth (Ex. 30); type: in vivo; conditions: tomato seedlings, dose 1 ml/gm/lit; for Plant Height 5th Day / Stem Girth 5th Day / CCI 5th Day: 5th day after application; for Plant Height 10th Day / Stem Girth 10th Day / CCI 10th Day: 10th day after application; for Plant Height % Increase over pre on 10th Day / Stem Girth % Increase over pre on 10th Day / CCI % Increase over pre on 10th Day / Root Length (cm) 10th Day / Root Length % Increase over control: 10th day; for Root Length % Increase over control: vs water control
# [4] = system: chili seedlings; assay: Response of chili plants, greenhouse growth (Ex. 31); type: in vivo; conditions: chili seedlings, dose 1 ml/gm/lit; for CCI 5th Day / Plant Height (cm) 5th Day: 5th day after application; for CCI 10th Day / Plant Height (cm) 10th Day: 10th day after application; for CCI % Increase over pre on 10th Day / Plant Height % Increase over pre on 10th Day / Root Lenght (cm) 10th Day / Stem Girth % Increase over pre on 10th Day / Root Lenght % Increase over control: 10th day; for Root Lenght % Increase over control: vs water control
# [5] = system: Aphid; conditions: Dose 1 ml/gm/lit.; for Total No. of dead insect at 48 Hrs.: 10 insects/treatment, 4 replications, cotton leaves
# [6] = system: Mite; conditions: Dose 1 ml/gm/lit.; for Total No. of dead insect at 48 Hrs.: 10 insects/treatment, 4 replications, okra leaves
# [7] = system: Mealy Bug; conditions: Mealy Bug on cotton leaves, dose 1 ml/gm/lit., 48 Hrs.; for Total No. of dead insect at 48 Hrs.: 10 insects/treatment, 4 replications; for % Corrected Mortality at 48 Hrs.: corrected for water control
# [8] = system: Helicoverpa armigera; conditions: Helicoverpa armigera on okra fruits, dose 1 ml/gm/lit., 72 Hrs.; for Total No. of dead insect at 72 Hrs.: 10 insects/treatment, 4 replications; for % Corrected Mortality at 72 Hrs.: corrected for water control
# [9] = system: Spodoptera litura; conditions: Spodoptera litura on castor leaves, dose 1 ml/gm/lit.; for Total No. of dead insect at 72 Hrs.: 10 insects/treatment
# [10] = system: Thrips; conditions: Thrips on cotton leaves, dose 1 ml/gm/lit.; for Total No. of dead insect at 48 Hrs.: 10 insects/treatment
# [11] = system: Aphid; conditions: Aphids on cotton plants, green house, dose 1 ml/gm/lit.; for Total No. of dead insect at 48 Hrs.: 10 insects/plant, 10 plants/treatment
# [12] = system: Mite; conditions: mite on okra plants, green house, dose 1 ml/gm/lit. spray; for % Mortality at 48 Hrs. / Total No. of dead insect at 48 Hrs.: 48 hrs after application; for % Corrected Mortality at 48 Hrs.: corrected for water control
# [13] = system: Mealy Bug; conditions: mealy bug on cotton plants, green house, dose 1 ml/gm/lit. spray; for % Mortality at 48 Hrs. / Total No. of dead insect at 48 Hrs.: 48 hrs after application; for % Corrected Mortality at 48 Hrs.: corrected for water control
# [14] = system: Helicoverpa armigera; conditions: Helicoverpa armigera 3rd instar on chickpea plants, dose 1 ml/gm/lit. spray; for % Mortality at 72 Hrs.: 72 hrs after application; for % Corrected Mortality at 72 Hrs.: corrected for water control
# [15] = system: Spodoptera litura; conditions: Spodoptera litura 3rd instar on cabbage plants, dose 1 ml/gm/lit. spray; for % Mortality at 72 Hrs.: 72 hrs after application; for % Corrected Mortality at 72 Hrs.: corrected for water control
# [16] = system: Thrips; conditions: thrips on cotton plants, greenhouse, dose 1 ml/gm/lit. spray; for % Mortality at 48 Hrs. / Total No. of dead insect at 48 Hrs.: 48 hrs after application; for % Corrected Mortality at 48 Hrs.: corrected for water control
# [17] = system: Spodoptera litura; assay: whole plant or invertebrate; conditions: 72 h
# [18] = system: Thrips; assay: whole plant or invertebrate; conditions: in Gossypium hirsutum, 48 h
# [19] = system: Aphid; assay: whole plant or invertebrate; conditions: 48 h
# [20] = Table 13, descriptive; no test described; cited from earlier work
# [21] = read-out: % Corrected Mortality at 48 Hrs.
# [22] = read-out: % Mortality at 48 Hrs.
# [23] = 48 hrs, corrected for water control
compound,measurement,setting,value
C=CCc1ccc(OC)cc1 [Methyl chavicol],Mean colony Diameter (mm),[1],54.00 mm
same,inhibition of growth at 1 mL or g/L,"[1]; vs untreated control, read-out: % Inhibition of growth",38.6%
same,% Disease reduction over Control,[2],48.76%
same,Plant Height 5th Day,[3],7.16 cm
same,Stem Girth 5th Day,[3],1.50 mm
same,Plant Height 10th Day,[3],7.86 cm
same,Stem Girth 10th Day,[3],2.10 mm
same,Plant Height % Increase over pre on 10th Day,[3],28.43%
same,Stem Girth % Increase over pre on 10th Day,[3],55.56%
same,CCI 5th Day,[3],14.23
same,CCI % Increase over pre on 10th Day,[3],23.12%
same,Root Length (cm) 10th Day,[3],4.13 cm
same,CCI 10th Day,[3],15.23
same,Root Length % Increase over control,[3],24.05%
same,CCI 5th Day,[4],12.70
same,Plant Height (cm) 5th Day,[4],5.97 cm
same,CCI % Increase over pre on 10th Day,[4],38.53%
same,Plant Height % Increase over pre on 10th Day,[4],44.42%
same,Root Lenght (cm) 10th Day,[4],3.11 cm
same,Stem Girth % Increase over pre on 10th Day,[4],45.91%
same,CCI 10th Day,[4],15.1
same,Plant Height (cm) 10th Day,[4],6.21 cm
same,Root Lenght % Increase over control,[4],13.83%
same,Total No. of dead insect at 48 Hrs.,[5],6.50
same,% Corrected Mortality at 48 Hrs.,[5],60.00%
same,% Mortality at 48 Hrs.,[5],65.00%
same,Total No. of dead insect at 48 Hrs.,[6],4.50
same,% Corrected Mortality at 48 Hrs.,[6],40.54%
same,% Mortality at 48 Hrs.,[6],45.00%
same,Total No. of dead insect at 48 Hrs.,[7],6.25
same,% Mortality at 48 Hrs.,[7],62.50%
same,% Corrected Mortality at 48 Hrs.,[7],60.53%
same,Total No. of dead insect at 72 Hrs.,[8],6.25
same,% Mortality at 72 Hrs.,[8],62.50%
same,% Corrected Mortality at 72 Hrs.,[8],62.50%
same,Total No. of dead insect at 72 Hrs.,[9]; 72 hrs after application,6.50
same,Total No. of dead insect at 48 Hrs.,[10]; 48 hrs after application,5.50
same,Total No. of dead insect at 48 Hrs.,[11]; 48 hrs,67.50
same,% Mortality at 48 Hrs.,[12],42.50%
same,Total No. of dead insect at 48 Hrs.,[12],42.50
same,% Corrected Mortality at 48 Hrs.,[12],39.47%
same,% Mortality at 48 Hrs.,[13],60.00%
same,Total No. of dead insect at 48 Hrs.,[13],60.00
same,% Corrected Mortality at 48 Hrs.,[13],55.56%
same,% Mortality at 72 Hrs.,[14],67.50%
same,% Corrected Mortality at 72 Hrs.,[14],67.50%
same,% Mortality at 72 Hrs.,[15],62.50%
same,% Corrected Mortality at 72 Hrs.,[15],60.53%
same,% Mortality at 48 Hrs.,[16],57.50%
same,Total No. of dead insect at 48 Hrs.,[16],57.50
same,% Corrected Mortality at 48 Hrs.,[16],52.78%
same,mortality at 1 mL or g/L,[17]; read-out: % Corrected Mortality at 72 Hrs.,63.2%
same,mortality at 1 mL or g/L,[17]; read-out: % Mortality at 72 Hrs.,65%
same,mortality at 1 mL or g/L,[18]; [21],48.6%
same,mortality at 1 mL or g/L,[18]; [22],55%
same,mortality at 1 mL or g/L,[19]; [21],61.8%
same,mortality at 1 mL or g/L,[19]; [22],67.5%
Parthenin,Mean colony Diameter (mm),[1],78.00 mm
same,% Inhibition of growth,[1]; vs untreated control,11.36%
same,% Disease reduction over Control,[2],43.80%
same,Plant Height 5th Day,[3],6.64 cm
same,Stem Girth 5th Day,[3],1.66 mm
same,Plant Height 10th Day,[3],7.29 cm
same,Stem Girth 10th Day,[3],2.22 mm
same,Plant Height % Increase over pre on 10th Day,[3],29.95%
same,Stem Girth % Increase over pre on 10th Day,[3],55.53%
same,Plant Height Pre,[3]; before application,5.61 cm
same,Stem Girth Pre,[3]; before application,1.43 mm
same,CCI 5th Day,[3],13.95
same,CCI % Increase over pre on 10th Day,[3],20.70%
same,Root Length (cm) 10th Day,[3],4.05 cm
same,CCI 10th Day,[3],14.87
same,Root Length % Increase over control,[3],21.63%
same,CCI Pre,[3]; pre-application baseline,12.32
same,CCI 5th Day,[4],14.50
same,Plant Height (cm) 5th Day,[4],6.13 cm
same,CCI % Increase over pre on 10th Day,[4],74.40%
same,Plant Height % Increase over pre on 10th Day,[4],52.29%
same,Root Lenght (cm) 10th Day,[4],3.12 cm
same,Stem Girth % Increase over pre on 10th Day,[4],38.18%
same,CCI 10th Day,[4],15.87
same,Plant Height (cm) 10th Day,[4],6.65 cm
same,Root Lenght % Increase over control,[4],14.01%
same,CCI Pre,[4]; pre-application baseline,9.10
same,Plant Height (cm) Pre,[4]; pre-application baseline,4.37 cm
same,Total No. of dead insect at 48 Hrs.,[5],6.00
same,% Corrected Mortality at 48 Hrs.,[5],54.29%
same,% Mortality at 48 Hrs.,[5],60.00%
same,Total No. of dead insect at 48 Hrs.,[6],3.25
same,% Corrected Mortality at 48 Hrs.,[6],27.03%
same,% Mortality at 48 Hrs.,[6],32.50%
same,Total No. of dead insect at 48 Hrs.,[7],4.75
same,% Mortality at 48 Hrs.,[7],47.50%
same,% Corrected Mortality at 48 Hrs.,[7],44.74%
same,Total No. of dead insect at 72 Hrs.,[8],3.25
same,% Mortality at 72 Hrs.,[8],32.50%
same,% Corrected Mortality at 72 Hrs.,[8],32.50%
same,Total No. of dead insect at 72 Hrs.,[9]; 72 hrs after application,2.75
same,% Mortality at 72 Hrs.,[9]; 72 hrs after application,27.50%
same,% Corrected Mortality at 72 Hrs.,"[9]; 72 hrs, corrected for water control",23.68%
same,Total No. of dead insect at 48 Hrs.,[10]; 48 hrs after application,4.75
same,% Mortality at 48 Hrs.,[10]; 48 hrs after application,47.50%
same,% Corrected Mortality at 48 Hrs.,[10]; [23],40.00%
same,Total No. of dead insect at 48 Hrs.,[11]; 48 hrs,57.50
same,% Mortality at 48 Hrs.,[11]; 48 hrs after application,57.50%
same,% Corrected Mortality at 48 Hrs.,[11]; [23],50.00%
same,% Mortality at 48 Hrs.,[12],22.50%
same,Total No. of dead insect at 48 Hrs.,[12],22.50
same,% Corrected Mortality at 48 Hrs.,[12],18.42%
same,% Mortality at 48 Hrs.,[13],50.00%
same,Total No. of dead insect at 48 Hrs.,[13],50.00
same,% Corrected Mortality at 48 Hrs.,[13],44.44%
same,% Mortality at 72 Hrs.,[14],35.00%
same,% Corrected Mortality at 72 Hrs.,[14],35.00%
same,% Mortality at 72 Hrs.,[15],27.50%
same,% Corrected Mortality at 72 Hrs.,[15],23.68%
same,% Mortality at 48 Hrs.,[16],45.00%
same,Total No. of dead insect at 48 Hrs.,[16],45.00
same,% Corrected Mortality at 48 Hrs.,[16],38.89%
same,Antioxidant Activity - Mode of action,[20],Possesses antioxidant
same,Insecticidal Activities - Mode of action,[20],Antifeedant activity against
